Results: US20140024674A1, “TRPM5 INHIBITORS SUPPORT BODY WEIGHT REDUCTION WITHOUT REDUCING FOOD INTAKE” (NESTEC S.A., priority 2011, published 2014)
Entries after “also recorded” stand apart in the source; their conditions may differ.

Legend:
[1] = Quinine-supplemented diet in wild type mice over 12 weeks: body weight, body composition (NMR), food intake; format: in vivo; settings: for mean fat mass at the end of the trial: control 7.65 g±0.47
Procedure: Body composition was determined on […] mice by nuclear magnetic resonance (NMR) using an EchoMRI-900 Body Composition Analyzer (Echo Medical System, LLC, Houston, Tex., USA).
Three groups of wild type male C57BL6 mice 3 months old, 20 mice per group, were fed either a semi-synthetic (AlN) diet, or AlN diet with 0.1% quinine, or AlN diet with 0.01% quinine.
Body weight was measured weekly, body composition was measured monthly, food and fluid intake were measured twice a week over a period of 12 weeks.

Trpm5 = target: T1, Trpm5 (Mus musculus, UniProt Q9JJH7); settings: Talayera et al, 2008, FASEB J.; cited from earlier work
T1 sequence (Q9JJH7 1-1158): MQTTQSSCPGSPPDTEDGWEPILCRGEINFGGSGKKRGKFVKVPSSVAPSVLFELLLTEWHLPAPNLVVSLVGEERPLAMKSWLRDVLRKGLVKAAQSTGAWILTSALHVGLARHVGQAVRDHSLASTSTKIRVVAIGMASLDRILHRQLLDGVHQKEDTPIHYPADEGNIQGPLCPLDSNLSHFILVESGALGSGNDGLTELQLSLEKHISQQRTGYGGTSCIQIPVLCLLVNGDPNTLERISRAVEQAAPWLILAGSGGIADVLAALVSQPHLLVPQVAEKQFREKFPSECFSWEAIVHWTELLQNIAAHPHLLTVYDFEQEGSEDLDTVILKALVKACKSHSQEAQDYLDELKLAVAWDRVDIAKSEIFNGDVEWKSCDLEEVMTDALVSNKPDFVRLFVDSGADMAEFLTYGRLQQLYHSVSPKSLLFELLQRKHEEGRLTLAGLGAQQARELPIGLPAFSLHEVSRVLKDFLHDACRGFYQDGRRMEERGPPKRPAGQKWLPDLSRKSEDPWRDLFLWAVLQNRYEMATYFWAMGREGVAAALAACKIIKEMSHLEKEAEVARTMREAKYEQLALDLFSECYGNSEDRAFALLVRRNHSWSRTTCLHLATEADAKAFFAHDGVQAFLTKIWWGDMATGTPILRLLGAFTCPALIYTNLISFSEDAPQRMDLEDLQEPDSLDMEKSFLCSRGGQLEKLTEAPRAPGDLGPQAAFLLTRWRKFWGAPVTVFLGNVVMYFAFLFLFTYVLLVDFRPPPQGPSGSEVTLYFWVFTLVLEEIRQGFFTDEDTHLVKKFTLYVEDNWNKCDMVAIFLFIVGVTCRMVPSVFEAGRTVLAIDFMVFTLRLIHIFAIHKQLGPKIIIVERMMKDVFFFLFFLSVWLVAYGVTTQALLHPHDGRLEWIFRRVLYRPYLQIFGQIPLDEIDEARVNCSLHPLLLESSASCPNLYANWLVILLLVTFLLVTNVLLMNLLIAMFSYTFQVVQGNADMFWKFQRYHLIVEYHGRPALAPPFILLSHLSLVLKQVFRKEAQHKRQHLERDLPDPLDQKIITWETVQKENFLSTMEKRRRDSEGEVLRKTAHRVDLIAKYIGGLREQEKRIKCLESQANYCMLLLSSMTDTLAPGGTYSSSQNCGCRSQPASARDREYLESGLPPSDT

In the case of `C=C[C@H]1CN2CC[C@H]1C[C@H]2[C@H](O)c1ccnc2ccc(OC)cc12` [quinine, (R)-(6-methoxyquinolin-4-yl)((2S,4S,8R)-8-vinylquinuclidin-2-yl)methanol], the “mean fat mass at the end of the trial” value ([1]; wild type male C57BL6 mice, AlN diet with 0.01% quinine, 12 weeks, NMR) was 7.9675 g, the Body weight gain ([1]; wild type male C57BL6 mice, AlN diet with 0.01% quinine, 12 weeks, vs control diet) was “not different from control” and the “mean fat mass at the end of the trial” value ([1]; wild type male C57BL6 mice, AlN diet with 0.1% quinine, 12 weeks, NMR, p<0.01 compared to control) was 5.524 g. For the same molecule, the Body weight gain ([1]; wild type male C57BL6 mice, AlN diet with 0.1% quinine, 12 weeks, vs control diet (p<0.01)) was “gained less weight; also recorded: significantly lower”, the lean mass ([1]; wild type male C57BL6 mice, diet with 0.1% or 0.01% quinine vs control diet, 12 weeks, NMR) was “no difference between groups” and the Total food intake ([1]; wild type male C57BL6 mice, diet with 0.1% or 0.01% quinine vs control diet, over 12 weeks) was “food intake was not different between the groups; also recorded: no difference in food intake between groups”. The “fat mass gain vs control diet” value ([1]; wild type mice, 0.1% quinine supplemented diet, 12 weeks) was “gained less weight and fat mass” and the “inhibition of Trpm5” value (Trpm5) was “inhibitor of Trpm5”.
